Experimental data published in ChEMBL document CHEMBL5257100, “Discovery and development of benzene sulfonamide derivatives as anti-hepatic fibrosis agents” (Bioorg Med Chem Lett, 2023).
Calls of active or inactive are those of the source. No cut-off for these calls is given here.

Experiments:
[1] = Anti-hepatic fibrosis activity in human LX2 cells assessed as inhibition of COL1A1 promoter activity at 25 micromol/L by luciferase reporter assay relative to control; format: functional; settings: LX-2, dose 25 µmol/L
LX-2 [2] = test: Anti-hepatic fibrosis activity in human LX2 cells assessed as inhibition of TGF-beta1 induced COL1A1 mRNA expression at 3 micromol/L incubated for 24 hrs by qPCR analysis; format: functional, cell-based; settings: dose 3.0 µmol/L
LX-2 [3] = test: Anti-hepatic fibrosis activity in human LX2 cells assessed as inhibition of TGFbeta1-induced COL1A1 protein expression at 3 uM incubated for 24 hrs by western blot analysis; format: functional, cell-based
LX-2 [4] = test: Anti-hepatic fibrosis activity in human LX2 cells assessed as inhibition of TGFbeta1-induced FN protein expression at 3 uM incubated for 24 hrs by western blot analysis; format: functional, cell-based
LX-2 [5] = test: Anti-hepatic fibrosis activity in human LX2 cells assessed as inhibition of TGFbeta1-induced alpha-SMA protein expression at 3 uM incubated for 24 hrs by western blot analysis; format: functional, cell-based
LX-2 [6] = test: Anti-hepatic fibrosis activity in human LX2 cells assessed as inhibition of TGFbeta1-induced TIMP-1 protein expression at 3 uM incubated for 24 hrs by western blot analysis; format: functional, cell-based
LX-2 [7] = test: Anti-hepatic fibrosis activity in human LX2 cells assessed as inhibition of TGF-beta1 induced MMP-2 mRNA expression at 3 micromol/L incubated for 24 hrs by qPCR analysis; format: functional, cell-based; settings: dose 3.0 µmol/L
LX-2 [8] = test: Anti-hepatic fibrosis activity in human LX2 cells assessed as inhibition of TGF-beta1 induced intrinsic TGF-beta1 mRNA expression at 3 micromol/L incubated for 24 hrs by qPCR analysis; format: functional, cell-based; settings: dose 3.0 µmol/L
LX-2 [9] = test: Anti-hepatic fibrosis activity in human LX2 cells assessed as inhibition of TGFbeta1-induced COL1A1 protein expression at 1 uM incubated for 24 hrs by western blot analysis; format: functional, cell-based
LX-2 [10] = test: Anti-hepatic fibrosis activity in human LX2 cells assessed as inhibition of TGFbeta1-induced FN protein expression at 1 uM incubated for 24 hrs by western blot analysis; format: functional, cell-based
LX-2 [11] = test: Anti-hepatic fibrosis activity in human LX2 cells assessed as inhibition of TGFbeta1-induced alpha-SMA protein expression at 1 uM incubated for 24 hrs by western blot analysis; format: functional, cell-based
LX-2 [12] = test: Anti-hepatic fibrosis activity in human LX2 cells assessed as inhibition of TGFbeta1-induced TIMP-1 protein expression at 1 uM incubated for 24 hrs by western blot analysis; format: functional, cell-based
[13] = Cytotoxicity against human LX2 cells assessed as mortality rate at 1 to 30 uM incubated for 24 hrs by Sulfonyl Rhodamine B assay; format: toxicity, cell-based; settings: lx-2, 24 h, dose 1-30 µM
AML12 = test: Cytotoxicity against mouse AML12 cells assessed as mortality rate at 1 to 30 uM incubated for 24 hrs by Sulfonyl Rhodamine B assay; format: toxicity, cell-based; settings: aml12, 24 h, dose 1-30 µM
[14] = Inhibition of JAK1/STAT1/STAT3 signaling pathway in human LX2 cells assessed as decrease in TGF-beta induced JAK1 phosphorylation level at 1 uM incubated for 24 hrs by Western blot analysis; format: cell-based
[15] = Inhibition of JAK1/STAT1/STAT3 signaling pathway in human LX2 cells assessed as decrease in TGF-beta induced STAT1 phosphorylation level at 1 uM incubated for 24 hrs by Western blot analysis; format: cell-based
[16] = Inhibition of JAK1/STAT1/STAT3 signaling pathway in human LX2 cells assessed as decrease in TGF-beta induced STAT3 phosphorylation level at 1 uM incubated for 24 hrs by Western blot analysis; format: cell-based

SMILES	inhibition at 25 µM [1] [%]	further results
O=C(Nc1ccccc1NS(=O)(=O)c1cccc([N+](=O)[O-])c1)c1ccc(F)c(Cl)c1	37.1	–
COc1cccc(NCc2ccccc2NS(=O)(=O)c2cccc([N+](=O)[O-])c2)c1	23.2	–
O=[N+]([O-])c1cccc(S(=O)(=O)Nc2ccccc2CNc2cc(Cl)c(Cl)c(Cl)c2)c1	42.3	inhibition (LX-2 [2]): Active
O=S(=O)(Nc1ccccc1CNc1cc(Cl)c(Cl)c(Cl)c1)c1ccc(Cl)cc1	31.7	–
O=C(Nc1ccccc1NS(=O)(=O)c1ccc([N+](=O)[O-])cc1)c1ccc(Cl)c(Cl)c1	49.3	inhibition (LX-2 [2]): Active; inhibition (LX-2 [3]): Active; inhibition (LX-2 [4]): Active; inhibition (LX-2 [5]): Active; inhibition (LX-2 [6]): Active
CC[C@H]1[C@@H](O)[C@@H]2[C@H](CC[C@]3(C)[C@@H]([C@H](C)CCC(=O)O)CC[C@@H]23)[C@@]2(C)CC[C@@H](O)C[C@@H]12 [OBETICHOLIC ACID]	7.9	–
O=[N+]([O-])c1ccc(S(=O)(=O)Nc2ccccc2CNc2cc(Cl)c(Cl)c(Cl)c2)cc1	48.7	inhibition (LX-2 [2]): Active; inhibition (LX-2 [3]): Active; inhibition (LX-2 [4]): Active; inhibition (LX-2 [5]): Active; inhibition (LX-2 [6]): Active
O=C(Nc1ccc(Cl)cc1Cl)Nc1ccccc1NS(=O)(=O)c1cccc(OC(F)(F)F)c1	26.2	–
O=[N+]([O-])c1cccc(S(=O)(=O)Nc2ccccc2CNc2cc(Cl)ccc2Cl)c1	40	–
O=C(Nc1ccc(Cl)cc1)Nc1ccccc1NS(=O)(=O)c1ccc([N+](=O)[O-])cc1	23.6	–
Cc1cccc(S(=O)(=O)Nc2ccccc2CNc2cc(Cl)c(Cl)c(Cl)c2)c1	2.2	–
O=C(Nc1ccccc1NS(=O)(=O)c1cccc(C(F)(F)F)c1)c1cc(Cl)c(Cl)c(Cl)c1	60.7	inhibition (LX-2 [2]): Active; inhibition (LX-2 [7]): Active; inhibition (LX-2 [8]): Active; inhibition (LX-2 [9]): Active; inhibition (LX-2 [10]): Active; inhibition (LX-2 [11]): Active; inhibition (LX-2 [12]): Active; Activity [13]: Non-Toxic; Activity (AML12): Non-Toxic; inhibition [14]: Active; inhibition [15]: Active; inhibition [16]: Active
O=C(Nc1ccc(C(F)(F)F)cc1)Nc1ccccc1NS(=O)(=O)c1cccc([N+](=O)[O-])c1	17.8	–
O=C(Nc1ccc(Cl)cc1Cl)Nc1ccccc1NS(=O)(=O)c1cccc([N+](=O)[O-])c1	29.8	–
O=C(Nc1ccc(Cl)c(Cl)c1)Nc1ccccc1NS(=O)(=O)c1ccc([N+](=O)[O-])cc1	28.5	inhibition (LX-2 [2]): Active
O=S(=O)(Nc1ccccc1CNc1cc(Cl)c(Cl)c(Cl)c1)c1cccc(Cl)c1	33.4	–
COc1ccc(NC(=O)Nc2ccccc2NS(=O)(=O)c2ccc([N+](=O)[O-])cc2)cc1	14.5	–
O=C(Nc1cc(Cl)c(Cl)c(Cl)c1)c1ccccc1NS(=O)(=O)c1cccc([N+](=O)[O-])c1	35.9	inhibition (LX-2 [2]): Active; Activity [13]: Non-Toxic; Activity (AML12): Non-Toxic; inhibition [14]: Active; inhibition [15]: Active; inhibition [16]: Active
COc1ccc(C(F)(F)F)cc1NC(=O)Nc1ccccc1NS(=O)(=O)c1ccc([N+](=O)[O-])cc1	21.5	–
O=C(Nc1ccccc1NS(=O)(=O)c1ccc([N+](=O)[O-])cc1)c1ccc(Cl)cc1Cl	33	–
O=C(Nc1cccc(C(F)(F)F)c1)Nc1ccccc1NS(=O)(=O)c1ccc([N+](=O)[O-])cc1	22.9	–
COc1ccc(C(F)(F)F)cc1NC(=O)Nc1ccccc1NS(=O)(=O)c1cccc([N+](=O)[O-])c1	20.2	–
COc1cccc(S(=O)(=O)Nc2ccccc2NC(=O)Nc2cc(Cl)c(Cl)c(Cl)c2)c1	16.9	–
O=[N+]([O-])c1ccc(S(=O)(=O)Nc2ccccc2CNc2ccc(F)c(Cl)c2)cc1	34.2	–
O=C(Nc1ccc(Cl)cc1)Nc1ccccc1NS(=O)(=O)c1cccc([N+](=O)[O-])c1	21.9	–
O=C(Nc1ccc(C(F)(F)F)cc1)Nc1ccccc1NS(=O)(=O)c1ccc([N+](=O)[O-])cc1	21.3	–
COc1cccc(S(=O)(=O)Nc2ccccc2NC(=O)c2cc(Cl)c(Cl)c(Cl)c2)c1	1.5	–

SMILES	inhibition at 25 µM [1] [%]	further results
O=C(Nc1ccccc1NS(=O)(=O)c1ccc([N+](=O)[O-])cc1)c1cc(Cl)ccc1Cl	26.5	–
O=C(Nc1ccccc1NS(=O)(=O)c1cccc([N+](=O)[O-])c1)c1ccc(Cl)cc1Cl	27.9	–
O=C(O[C@@H]1Cc2c(O)cc(O)cc2O[C@@H]1c1cc(O)c(O)c(O)c1)c1cc(O)c(O)c(O)c1 [EPIGALOCATECHIN GALLATE]	25.3	–
O=C(Nc1ccc(Cl)cc1Cl)Nc1ccccc1NS(=O)(=O)c1ccc([N+](=O)[O-])cc1	25.8	–
O=C(Nc1cccc(C(F)(F)F)c1)Nc1ccccc1NS(=O)(=O)c1cccc([N+](=O)[O-])c1	22.8	–
COc1ccc(NC(=O)Nc2ccccc2NS(=O)(=O)c2cccc([N+](=O)[O-])c2)cc1	25.4	–
O=[N+]([O-])c1ccc(S(=O)(=O)Nc2ccccc2CNc2cc(F)ccc2Cl)cc1	26	inhibition (LX-2 [3]): Active; inhibition (LX-2 [4]): Active; inhibition (LX-2 [5]): Active; inhibition (LX-2 [6]): Active
O=C(Nc1ccc(Cl)c(Cl)c1)Nc1ccccc1NS(=O)(=O)c1cccc([N+](=O)[O-])c1	21.6	–
O=C(Nc1ccccc1NS(=O)(=O)c1cccc([N+](=O)[O-])c1)c1cc(Cl)ccc1Cl	24.6	–
O=S(=O)(Nc1ccccc1CNc1cc(Cl)c(Cl)c(Cl)c1)c1ccc(OC(F)(F)F)cc1	42.4	–
O=[N+]([O-])c1cccc(S(=O)(=O)Nc2ccccc2CNc2ccc(F)c(Cl)c2)c1	24.1	–
O=S(=O)(Nc1ccccc1CNc1cc(Cl)c(Cl)c(Cl)c1)c1cccc(C(F)(F)F)c1	37.3	–
COc1cccc(S(=O)(=O)Nc2ccccc2CNc2cc(Cl)c(Cl)c(Cl)c2)c1	11.9	–
COc1ccc(C(=O)Nc2ccccc2NS(=O)(=O)c2cccc([N+](=O)[O-])c2)cc1	33.6	–
O=C(Nc1cc(C(F)(F)F)ccc1Cl)Nc1ccccc1NS(=O)(=O)c1ccc([N+](=O)[O-])cc1	39.4	–
O=S(=O)(Nc1ccccc1CNc1cc(Cl)c(Cl)c(Cl)c1)c1ccc(C(F)(F)F)cc1	42.4	–
Cc1cccc(S(=O)(=O)Nc2ccccc2NC(=O)Nc2cc(Cl)c(Cl)c(Cl)c2)c1	24.9	–
O=S(=O)(Nc1ccccc1CNc1cc(Cl)c(Cl)c(Cl)c1)c1cccc(OC(F)(F)F)c1	33.5	–
Cc1ccc(S(=O)(=O)Nc2ccccc2CNc2cc(Cl)c(Cl)c(Cl)c2)cc1	3.4	–
C=C1C(=O)O[C@@H]2/C=C(\C)CC/C=C(\C)CC[C@@H]12 [COSTUNOLIDE]	45.4	–
O=C(Nc1ccccc1NS(=O)(=O)c1cccc([N+](=O)[O-])c1)c1ccc(Cl)c(Cl)c1	30.9	–
Cc1ccc(NCc2ccccc2NS(=O)(=O)c2cccc([N+](=O)[O-])c2)cc1	14.7	–
O=[N+]([O-])c1cccc(S(=O)(=O)Nc2ccccc2CNc2cc(F)ccc2Cl)c1	29.8	–
COc1ccc(S(=O)(=O)Nc2ccccc2CNc2cc(Cl)c(Cl)c(Cl)c2)cc1	1.2	–
O=[N+]([O-])c1ccc(S(=O)(=O)Nc2ccccc2CNc2cc(Cl)ccc2Cl)cc1	32.3	inhibition (LX-2 [2]): Active; inhibition (LX-2 [3]): Active; inhibition (LX-2 [4]): Active; inhibition (LX-2 [5]): Active; inhibition (LX-2 [6]): Active
Cc1cccc(S(=O)(=O)Nc2ccccc2NC(=O)c2cc(Cl)c(Cl)c(Cl)c2)c1	15.3	–
O=C(Nc1cc(C(F)(F)F)ccc1Cl)Nc1ccccc1NS(=O)(=O)c1cccc([N+](=O)[O-])c1	21.3	–
